“And” between values parts separate entries of the source, which are not always exact repeats. Equal values may be shown once.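 96-well plates; 48 h exposure; 5 concentrations. Endpoints by linear interpolation between flanking doses. Not reached: highest tested concentration assigned. Here, GI50 denotes the concentration required for 50% inhibition of growth. TGI: concentration producing complete growth inhibition.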
Columns and labels:
Experiment in all cases: NCI-60 cell line screen, 48 h
SK-OV-3 ovarian = system: SK-OV-3 ovarian
SF-268 CNS = system: SF-268 CNS
KM12 colon = system: KM12 colon
HOP-92 NSCLC = system: HOP-92 NSCLC
SF-295 CNS = system: SF-295 CNS
LOX IMVI melanoma = system: LOX IMVI melanoma
SNB-75 CNS = system: SNB-75 CNS
HCC-2998 colon = system: HCC-2998 colon
HOP-62 NSCLC = system: HOP-62 NSCLC
UO-31 renal = system: UO-31 renal

Row | SMILES | TGI (SK-OV-3 ovarian) | TGI (SF-268 CNS) [µM] | TGI (KM12 colon) [µM] | TGI (HOP-92 NSCLC) | TGI (SF-295 CNS) [µM] | TGI (LOX IMVI melanoma) [µM] | TGI (SNB-75 CNS) | TGI (HCC-2998 colon) [µM] | TGI (HOP-62 NSCLC) | TGI (UO-31 renal) [µM] | GI50 (SK-OV-3 ovarian) [µM] | GI50 (SF-268 CNS) [µM] | GI50 (KM12 colon) [µM] | GI50 (HOP-92 NSCLC) [µM] | GI50 (SF-295 CNS) [µM] | GI50 (LOX IMVI melanoma) [µM] | GI50 (SNB-75 CNS) [µM] | GI50 (HCC-2998 colon) [µM] | GI50 (HOP-62 NSCLC) [µM] | GI50 (UO-31 renal) [µM]
1 | COc1ccc(NC(=O)c2cc(OC)c(OC)c(OC)c2)cc1 | > 100 µM | > 94.8 | > 100 | > 100 µM | > 100 | > 100 | > 100 µM | > 100 | 99.7 µM | > 100 | – | – | – | – | – | – | – | – | – | –
2 | CC(=O)[O-].CC(=O)[O-].[NH2-].[Pt+2].c1ccc2cnccc2c1 | > 100 µM | > 100 | > 100 | 90.6 µM | > 100 | 31.7 | > 100 µM | > 100 | > 100 µM | 97.5 | > 100 | 18.8 | 13.5 | 16.2 | > 100 | 9.19 | > 100 | > 100 | 74.5 | 22.9
3 | COc1ccc2oc3cccc(NCCN(C)C)c3c(=O)c2c1 | 28.7 µM | 28.3 | 26.7 | 27.9 µM | 29.9 | 22.7 | 31 µM | 21.9 | 29.2 µM | 21.4 | – | – | – | – | – | – | – | – | – | –
4 | Fc1cccc(COc2ccc(Nc3ncnc4cc(-c5ccc[nH]5)sc34)cc2Cl)c1 | 20.1 µM | > 14.7 | 5.54 | 2.39 µM | > 19.9 | > 22.4 | 6.35 µM | 19.2 | 8.52 µM | 2.52 | 2.41 | 1.46 | 0.156 | 0.31 | 0.548 | 8.04 | 1.19 | 0.246 | 3.01 | 0.245
5 | CN(C)C(=S)N=Nc1c(O)[nH]c2ccccc12 | 13.9 µM | 12.6 | 12.9 | 15.9 µM | 14.2 | 13.5 | 18.5 µM | 17.2 | 14.7 µM | 6.03 | 0.79 | 0.593 | 0.496 | 0.761 | 0.315 | 0.46 | 3.01 | 1.54 | 0.708 | 0.384
6 | CC(C)C1CC(O)O[C@@H]([C@@H](C)[C@H]2CC(=O)[C@@H]3[C@@H]4[C@@H](O)[C@H](O)[C@H]5[C@@H](O)[C@H](O)CC[C@]5(C)[C@H]4CC[C@]23C)C1 (stereo partly drawn) | > 100 µM | > 100 | > 100 | 57.1 µM | > 100 | > 100 | 54.3 µM | > 100 | 61.4 µM | > 100 | – | – | – | – | – | – | – | – | – | –
7 | S=c1[nH]c2ccc(Br)cc2c(=S)n1-c1ccccc1 | 85.6 µM | > 100 | 72.5 | 78.5 µM | 55.7 | 85.1 | 79.1 µM | 40.8 | 47 µM | 59 | – | – | – | – | – | – | – | – | – | –
8 | CC1C(=O)C(C)C(c2ccccc2)N(N=O)C1c1ccccc1 (stereo not drawn) | > 83.8 µM and 472 µM | 352 | > 684 | 78.4 µM and 264 µM | 498 | > 783 | 64.7 µM and 80.6 µM | > 1000 | > 78.3 µM and 360 µM | > 829 | 103 | 44 | – | 107 | 181 | – | 27.2 | > 1000 | 111 | 268
9 | CC(C)CC1=[N+]=C(NC#N)N=C(CCC(=O)Nc2ccccc2[N+](=O)[O-])C1 | > 100 µM | > 100 | > 100 | > 100 µM | > 100 | > 100 | > 100 µM | > 100 | > 100 µM | > 100 | – | – | – | – | – | – | – | – | – | –
10 | CN(C)c1ccc2cc(-c3ccccc3F)c(N)nc2c1 | 12.2 µM | 19.8 | 14.9 | 9.7 µM | 12.4 | 15.1 | 9.69 µM | 17.6 | 12.7 µM | 16.5 | 2.52 | 3.89 | 0.89 | 1.4 | 1.04 | 2.69 | 1.86 | 3.18 | 1.68 | 3.16
11 | COc1ccc2c3c(c(=O)n(C)c2c1OC)C=CC(C)(C)O3 | > 100 µM | > 100 | 77 | 76 µM | > 100 | > 100 | 48.2 µM | > 100 | > 100 µM | 63.3 | – | – | – | – | – | – | – | – | – | –
12 | Cc1cccc(C(C)C)c1NC(=O)C(=O)CC(=O)c1c(C)n([O-])c2ccccc2[n+]1=O | > 100 µM | > 100 | > 100 | > 100 µM | > 100 | > 100 | 71.1 µM | > 100 | > 100 µM | > 100 | – | – | – | – | – | – | – | – | – | –

Reference: PubChem BioAssay (NCI)
